The source of these data is US11213559B2, “Formulation for treatment of irritable bowel disease” (ABOCA S.P.A. SOCIETA′ AGRICOLA, priority 2012, dated 2022).

Each structure is given as a SMILES string.

One experiment has as its system ileum. In words: protective effect on intestinal mucosa in Ussing chamber, ileum. Format: in vivo, rat. The conditions noted are these: isolated (stress) rats, composition 500 mg/kg, dexamethasone 1 mg/kg intragastrically, average ±SD. The method, then:
(§1) The experiment was conducted in order to verify the effects of the tested substances on the artificially damaged intestinal mucosa ex vivo (for example hydrochloric acid).
(§2) […] male Sprague Dawley rats weighing approximately 200-250 g were used for the test.
(§3) 4 groups of 8 rats A, B, C, D were formed, respectively containing untreated rats, rats treated with 1.0 ml saline solution intragastrically, rats treated with 1.0 ml (500 mg/kg of body weight) of composition of the invention intragastrically, and rats treated with 1.0 ml of dexamethasone (1 mg/kg of body weight) intragastrically.
(§4) The animals in groups A, B, C and D were deprived of food for 18 hours.
Four rats per group were then anaesthetised 50 minutes after the above-indicated administration by means of intraperitoneal injection and were kept in a heated atmosphere.
A sample of the ileum was then dissected from these rats and mounted between the two half-chambers of the Ussing chamber and damage was induced using hydrochloride (pH 8.0; pH 6.5). […]
(§5) The ddp in mV through the mucosal membrane was measured directly as well as the short-circuit current, and these were monitored for 15 minutes whilst the transmembrane resistance was calculated in ohm x cm^2 using Ohm's law. […]
(§6) The system was then stabilised for 10 minutes and the same parameters as indicated above were then measured for 15 minutes. […]

A further experiment relates to duodenum. In words: protective effect on intestinal mucosa in Ussing chamber, duodenum. To be noted: isolated (stress) rats, composition 500 mg/kg, dexamethasone 1 mg/kg intragastrically, average ±SD. Format: in vivo, rat. The method, then:
as §1, §2, §3, §4
Four rats per group were anaesthetised 30 minutes after the above-indicated administration by means of intraperitoneal injection and were kept in a heated atmosphere.
A sample of the duodenum was then dissected from these rats and mounted between the two half-chambers of the Ussing chamber and damage was induced using hydrochloride (pH 8.0; pH 5.5). […]
as §5, §6

In experiment [1] the test system is colitis induced by acetic acid. Description: model of colitis induced by acetic acid in rats. In kind it is in vivo, rat. The conditions noted are these: average ± SEM. The method, then: To test in vivo the efficacy of the composition of the invention, said composition was formulated in capsules and was assessed in terms of its ability to protect the susceptibility of the intestinal mucosa to irritating stimuli. Based on the presumed mechanism of the product to act on the inflammatory component of IBS (supported only recently by the literature) by means of a local, indirect protective and anti-inflammatory action also stemming from mucoadhesion, an experimental model of inflammatory colitis, not specific for IBS, was selected.
The study was carried out on a model of colitis induced by acetic acid, as described by McPherson B R, Pfeiffer C J (1978) Experimental Production of Diffuse Colitis in Rats. Digestion;17:135-150; Mousavizadeh K, Rahimian R, Fakhfouri G, Aslani F S, Ghafourifar P. (2009) Anti-inflammatory effects of 5-HT receptor antagonist, tropisetron on experimental colitis in rats. Eur J Clin Invest.;39(5):375-83; Noronha-Blob L, Lowe V C, Muhlahauser R O, Burch R M. (1993) NPC 15669, an inhibitor of neutrophil recruitment, is efficacious in acetic acid-induced colitis in rats. Gastroenterology, 104:1021-9.
Each group was formed by 10 rats in accordance with the following schema • 1. Rats without colitis, treated with vehicle 10 ml/kg, (p.o.); • 2. Rats with colitis, treated with vehicle 10 ml/kg, (p.o.); • 3. Rats with colitis, treated with the composition of the invention, (p.o.); • 4. Rats with colitis, treated with dexamethasone, (p.o) as reference. Macroscopic and microscopic parameters were measured.
In particular, the macroscopic damage to the colon, the colon index (mg of colon/grams of rat) and the activity of myeloperoxidase, an enzyme contained in the intracellular azurophilic granules of the polymorphonuclear leukocytes (PMNs), which can therefore be used as an indicator of the accumulation of the migrated neutrophils in the tissues during an inflammatory process, are shown.
To verify the effectiveness of the use of the incense ingredient in the formulations, the same experiment of inflammatory colitis induced by acetic acid was carried out with a formulation devoid of incense (ABO-INT-10-2), which corresponds to the formulation Abo-INT 10 (general formulations on page 16), devoid of incense.

For the next experiment, the system named is CaCo-2. Description: antioxidant activity test (DCFH-DA, oxidative stress by oxygenated water). Format: cell-based, human. The conditions noted are these: 0.15 mg/ml. The method, then: In order to verify the antioxidant power of the composition of the invention in a biological system similar to the intestinal epithelium (CaCo-2), the following tests were carried out: Evaluation of the antioxidant activity of the sample on human cells subject to chemical, progressive oxidative stress. The assessment of the antioxidant action is acquired from the quantification of the formation of free radicals in cells exposed to the sample and to oxidative stress. The antioxidant activity of the sample in analyses was evaluated by comparison with that of a safe hydrosoluble antioxidant, such as vitamin C. The protocol is based on the use of a fluorescent probe called 2′,7′-dichlorofluorescein diacetate (DCFH-DA), a non-fluorescent stable molecule that enters the cells, bonds to the membrane macromolecules, where it is hydrolysed from cytoplasmic esterases to give dichlorofluorescein (DCFH), a molecule that again is non-fluorescent. DCFH, in the presence of free radicals, is oxidised, forming a highly fluorescent molecule: DCF. The oxidative stress is induced via oxygenated water. The radicals produced constitutively from the cells with the addition of the sample, but without the addition of the oxidising agent, were also monitored as a negative control (absence of oxidant activity of the composition of the invention).

[2] abbreviates: Table 1, rats with 4% acetic acid colitis, ABO/INT-10 1 g/kg, dexamethasone 1 mg/kg p.o.
The mark [3] stands for this setting: Table 3, experiment with formulation devoid of incense, ABO/INT-10-2 1 g/kg, dexamethasone 1 mg/kg.
Where [4] appears, read: Table 4, experiment with formulation devoid of incense, ABO/INT-10-2 1 g/kg, dexamethasone 1 mg/kg.

As to `C[C@@H]1C[C@H]2[C@@H]3CCC4=CC(=O)C=C[C@]4(C)[C@@]3(F)[C@@H](O)C[C@]2(C)[C@@]1(O)C(=O)CO` [Dexamethasone, dexamethasone], in the experiment on ileum (Krebs buffer at pH 6.5), the “average value of resistance of the ileum after induction of damage” value was 39.7±8.1 ohm×cm^2. Also, in the experiment on ileum (physiological pH Krebs buffer, 50 minutes), the “average value of resistance of the ileum” value came to 50.6±13.4 ohm×cm^2. Besides, the “average value of resistance of the duodenum after induction of damage” value in the experiment on duodenum (Krebs buffer at pH 5.5) is recorded as 48.0±12.7 ohm×cm^2. Moreover, in the experiment with duodenum (physiological pH Krebs buffer, 30 minutes), the “average value of resistance of the duodenum” value is given as 50.4±13.9 ohm×cm^2. Besides, in experiment [1] (setting [2]), the Faecal excretion number was found to be 40.40 ± 8.035 and the “Faecal excretion weight” value came to 9.440 ± 1.790 g. Besides, in experiment [1] (Table 1, rats with 4% acetic acid colitis, final, ABO/INT-10 1 g/kg, dexamethasone 1 mg/kg p.o.), the “Body weight (g) Final” value is on record as 214.3 ± 4.177 g. Further, the Macroscopic damage in experiment [1] (Table 2, colon, rats with 4% acetic acid colitis, composition 1 g/kg, dexamethasone 1 mg/kg p.o.) was found to be 4.417 ± 1.052. In addition, in experiment [1] (Table 2, mg of colon/grams of rat, composition 1 g/kg, dexamethasone 1 mg/kg p.o.), the “Colon index” value was found to be 6.041 ± 0.341 mg/g. Further, the “MPO (U/mg tissue)” value in experiment [1] (Table 2, myeloperoxidase activity, after 24 hours, composition 1 g/kg, dexamethasone 1 mg/kg p.o.) came out at 15.387 ± 6.136 U/mg tissue. Besides, in experiment [1] (setting [3]), the Defecations number turned out to be 42.10 ± 9.011, the “Defecations weight” value is given as 9.44 ± 1.79 g and the “Weight variation (g)” value is listed as 2.167 ± 1.493°°** g. In experiment [1] (setting [4]), the “Colon index (mg/g)” value is 6.041 ± 0.341°** mg/g, the “MPO (U/mg tissue)” value is on record as 16.423 ± 5.9780°* U/mg tissue and the Macroscopic damage was determined as 4.417 ± 1.052°°**.
In the case of `O=C1O[C@H]([C@@H](O)CO)C(O)=C1O` [vitamin C], the “% reduction of free radicals” value is 38% in the experiment on CaCo-2 (30 min), 44.8% in the experiment on CaCo-2 (60 min), 48% in the experiment with CaCo-2 (90 min) and 47% with CaCo-2 (120 min).
